Test results taken from patent publication US6818203B2, “Use of perfluoroalkyl-containing metal complexes as contrast media in MR-imaging for visualization of plaque, tumors and necroses” (Schering Aktiengesellschaft, priority 2000, dated 2004).

Test system: iliac lymph nodes
Test: lymph node visualization (MRT) after intravenous administration in VX2-tumor-bearing rabbits
Assay type: in vivo
Conditions: 200 μmol of Gd/kg i.v.; for signal in zones within the lymph node diagnosed as metastases (confirmed histologically): early images
Method: The pictures of FIG. 6 show MR images of an iliac lymph node and of a primary tumor (VX2-tumor implanted i.m.) precontrast, 60 minutes and 20 hours after intravenous administration of 100 μmol of Gd/kg of body weight of metal complex I in rabbits. […] The enhancement in the healthy lymph node tissue was 382% at the time of 15 minutes p.i. and 419% at the time of 60 minutes p.i. […] The ratio of signal intensities of healthy lymph node tissue to metastasis was 3.0 at the time of 15 minutes p.i. and 3.4 at the time of 60 minutes p.i. […] The enhancement in the healthy lymph node tissue was 246% at the time of 15 minutes p.i. and 282% at the time of 60 minutes p.i. […] The ratio of signal intensities of healthy lymph node tissue to metastasis was 2.5 at the time of 15 minutes p.i. and 1.7 at the time of 60 minutes p.i. […] The enhancement in the healthy lymph node tissue was 297% at the time of 10 minutes p.i. and 269% at the time of 60 minutes p.i. […] The ratio of signal intensities of healthy lymph node tissue to metastasis was 5.1 at the time of 10 minutes p.i. and 1.9 at the time of 60 minutes p.i. […] The enhancement in the healthy lymph node tissue was 195% at the time of 15 minutes p.i. and 233% at the time of 60 minutes p.i. […] The ratio of signal intensities of healthy lymph node tissue to metastasis was 1.9 at the time of 15 minutes p.i. and 1.8 at the time of 60 minutes p.i.

Structure (SMILES) | signal in healthy lymph node tissue (T1-weighted gradient-echo images) | enhancement in the healthy lymph node tissue (15 minutes p.i.) [%] | ratio of signal intensities of healthy lymph node tissue to metastasis (15 minutes p.i.) | enhancement in the healthy lymph node tissue (60 minutes p.i.) [%] | ratio of signal intensities of healthy lymph node tissue to metastasis (60 minutes p.i.) | signal in zones within the lymph node diagnosed as metastases (confirmed histologically)
O=C([O-])CN1CCN(CC(=O)[O-])CCN(CC(O)CNC(=O)CCCC(=O)N2CCN(C(F)(F)C(F)(F)C(F)(F)C(F)(F)C(F)(F)C(F)(F)C(F)(F)C(F)(F)F)CC2)CCN(CC(=O)[O-])CC1.[Gd+3] (stereo not drawn) [metal complex III] | strong signal rise | 195 | 1.9 | 233 | 1.8 | without signal rise
CC(C(=O)NCC(=O)N(CCOCCC(F)(F)C(F)(F)C(F)(F)C(F)(F)C(F)(F)C(F)(F)C(F)(F)C(F)(F)F)CC(O)CO)N1CCN(CC(=O)[O-])CCN(CC(=O)[O-])CCN(CC(=O)[O-])CC1.[Gd+3] (stereo not drawn) [metal complex V] | strong signal rise | 246 | 2.5 | 282 | 1.7 | without signal rise
COCCN(CCOCCC(F)(F)C(F)(F)C(F)(F)C(F)(F)C(F)(F)C(F)(F)C(F)(F)C(F)(F)F)C(=O)CNC(=O)C(C)N1CCN(CC(=O)[O-])CCN(CC(=O)[O-])CCN(CC(=O)[O-])CC1.[Gd+3] (stereo not drawn) [metal complex X] | strong signal rise | 382 | 3.0 | 419 | 3.4 | without signal rise
